These results are taken from ChEMBL document CHEMBL1250538 (Bioorg Med Chem, 2010).

A word on the IC50: it is the concentration at which inhibition is half-maximal.

Bounds are passed on as bounds.

Data set [1] relates to K562. In words: Antiproliferative activity against human K562 cells. Format: functional, cell-based.
Data set [2] in a line: Antiproliferative activity against BCR-ABL1 transfected mouse BA/F3 cells. Particulars: BaF3. Format: functional, cell-based.
Data set [3] can be described thus: Antiproliferative activity against PDGFRbeta transfected mouse BA/F3 cells. The class given is functional, cell-based. Particulars: BaF3.
Data set [4] is described as follows: Antiproliferative activity against human GIST882 cells. Format: functional, cell-based.
The nature of data set [5]: Antiproliferative activity against mouse M-NFS-60 cells. Format: functional, cell-based.
A short description of data set [6]: Antiproliferative activity mouse BA/F3 cells in presence of interleukin 3. Format: functional, cell-based. Particulars: BaF3.
Data set [7] is filed under the species Homo sapiens. In words: Toxicity in chronic CML patient assessed as cytogenetic response. Particulars: in vivo. The class given is organism-based.
The species entered for data set [8] is Homo sapiens. In words: Toxicity in chronic CML patient assessed as maximum tolerated dose. Format: organism-based. Particulars: in vivo.

Turning to `Cc1cn(-c2cc(NC(=O)c3ccc(C)c(Nc4nccc(-c5cccnc5)n4)c3)cc(C(F)(F)F)c2)cn1` [NILOTINIB], the IC50 in data set [1] was 21 nM; in data set [2], 25 nM; in data set [3], 62 nM; in data set [4] it was 151 nM; in data set [5], 838 nM; in data set [6], over 10 µM.

For `Cc1ccc(NC(=O)c2ccc(CN3CCN(C)CC3)cc2)cc1Nc1nccc(-c2cccnc2)n1` [IMATINIB], the IC50 in data set [1] was determined as 244 nM; in data set [2] it was 678 nM; in data set [3], 39 nM; in data set [4] it was 108 nM; in data set [5], 358 nM; in data set [6] it was 9.46 µM. The Activity entry in data set [7] is recorded as “Non-toxic”. Further, in data set [8], the MTD is 400 mg.
